Measurements taken from article PMC3907559, “KDT501, a Derivative from Hops, Normalizes Glucose Metabolism and Body Weight in Rodent Models of Diabetes” (PLoS ONE, 2014).

What was measured:
THP-1 cells = test: LPS-stimulated inflammatory mediators in THP-1 cells; assay type: cell-based, human; settings: 1 hour pre-incubation, LPS 1 µg/mL overnight, various concentrations (KDT501 6.25 to 50 µM)
Procedure: THP-1 cells were maintained in RPMI1640 in the presence of 10% serum according to manufacturer's instructions as described earlier. The cells were pre-incubated with various concentrations of test compounds (KDT501, rosiglitazone, telmisartan, DHA or PGJ2) in the presence of 1% serum medium for 1 hour, then stimulated with TNF-α (10 ng/ml) or LPS (1 µg/ml) overnight (16–20 hours. Cytokines were assayed using a Milliplex MAP human cytokine/chemokine kit and Luminex 100™ IS. Data were analyzed using a five-parameter logistic method and represented as Mean ±SD of four independent samples.

[1] = test system: human subcutaneous adipocytes; test: Lipogenesis in human subcutaneous adipocytes (Oil Red O); assay type: cell-based; settings: 10 days, relative to DMSO
Procedure: (§1) Murine 3T3-L1 preadipocytes were maintained in DMEM supplemented with 10% FBS as described earlier. Cells were seeded at an initial density of approximately […] in 24-well plates. After confluence, cells were treated with KDT501 ([…]), rosiglitazone (10 µM), or DMSO on day 0. Cells were differentiated in differentiation medium consisting of 10% FBS/DMEM, 0.5 mM methylisobutylxanthine, 0.5 µM dexamethasone, and 10 µg/mL insulin. After two days, the medium was changed to progression medium consisting of 10 µg/mL insulin in 10% FBS/DMEM followed by 2 more days in maintenance medium consisting of 10% FBS/DMEM. KDT501 or rosiglitazone were included throughout the maturation phase (day 6/day 7). Human subcutaneous primary adipocytes were maintained as described for 3T3L1 adipocytes and treated with rosiglitazone (1 µM), KDT501 (10 µM), telmisartan (10 µM), DHA (10 µM) or PGJ2 (10 µM) for 10 days. Intracellular lipid was quantified with Oil O-Red staining using an adipogenesis assay kit from (Millipore, Billerica, MA). The medium was carefully discarded and washed twice with PBS. 300 µL Of Oil O-Red solution were added and incubated for 15 minutes at room temperature. The cells were washed, and bound dye was extracted and transferred to a 96 well plate. Absorbance was measured at 530 nm using a plate reader (Thermo Electron Corp.). Fold change relative to DMSO control was calculated from four independent wells for each condition. Data represent Mean ± SD.

[2] = test system: Zucker Diabetic Fatty (ZDF) rats; test: ZDF rats, oral dosing twice daily (weight, HbA1c, glucose, OGTT); assay type: in vivo, rat
Procedure: Male ZDF rats were obtained from Charles River Laboratories at approximately 7 weeks of age. Rats were maintained ad lib on Purina #5008 diet, delivering approximately 17% of calories from fat. Animals with fasting glucose between 150–350 mg/dL were randomized based on glucose and body weight. Test articles were prepared in 0.5% (w/v) methylcellulose + 0.2% (w/v) Tween 80 and given by oral gavage twice daily. Rats (10/group, 6 treatment groups) were administered KDT501 (100, 150, or 200 mg/kg), metformin (200 mg/kg), pioglitazone (30 mg/kg) or vehicle control for up to 32 days. Body weights and food intake were determined weekly. Blood was collected via tail bleed and whole blood glucose was measured on days 1, 8, 15 and 29. Blood was collected in 5 animals on days 15 and 29 for determination of glucose, insulin, lipids, hematocrit, and HbA1c. Animals were fasted overnight and OGTT was conducted on days 31 and 32 for determination of glucose and insulin levels. A second ZDF rat study was conducted and the resulting data on total cholesterol are presented. Statistical calculations were performed (JMP version, SAS Institute, Cary, NC). One-way ANOVA with Dunnett's test for post hoc determinations were used to compare vehicle treated control. Data were expressed as mean ± SEM.

ZDF rats = test: Second ZDF rat study (total cholesterol, triglycerides in plasma); assay type: in vivo; settings: twice daily oral
Procedure: Blood was collected via tail bleed and whole blood glucose was measured on days 1, 8, 15 and 29. Blood was collected in 5 animals on days 15 and 29 for determination of glucose, insulin, lipids, hematocrit, and HbA1c. Animals were fasted overnight and OGTT was conducted on days 31 and 32 for determination of glucose and insulin levels. A second ZDF rat study was conducted and the resulting data on total cholesterol are presented. Statistical calculations were performed (JMP version, SAS Institute, Cary, NC). One-way ANOVA with Dunnett's test for post hoc determinations were used to compare vehicle treated control. Data were expressed as mean ± SEM.

DIO mice = test: DIO mice, oral dosing twice daily (body fat, OGTT); assay type: in vivo, C57Bl6/J male mice; settings: for OGTT glucose AUC / OGTT insulin AUC: four weeks, vs controls
Procedure: C57Bl6/J male mice were 15 weeks old at the start of the experiment. In general, DIO models are initiated at an early age to evaluate effects on obesity. However, older, overweight mice were used in this study to represent middle-aged human subjects for the assessment of metabolic parameters associated with weight loss/diabetes. The mice were housed individually in cages at 72±4°F with a relative humidity of 30–70% with 12 hour light- dark cycle. High fat diet (40% Cal) TD95217 (Teklad Custom Research Diet) was used in this study. The test compounds were administered orally twice per day at 12 hour intervals (10 mL/kg) in 0.5% methylcellulose and 0.2% Tween 80 (w/v). Mice were randomly allocated on the basis of body weight to seven groups (N = 10/group), with five animals for the oral glucose tolerance test (OGTT) and 5 animals for the insulin tolerance test. […] Body weight and food consumption were determined weekly. After 30 days, the mice were fasted overnight, blood was drawn through the tail vein and baseline blood glucose was measured using a glucose analyzer. One hour later, mice were given an oral gavage of glucose solution in water (4 ml/kg, 2 g/kg) and blood samples were taken at 15, 30, 60, and 120 min to determine plasma glucose and insulin levels. Five days before the start of the experiment (t = −5 days) and again at the end of the experiment (t = 28 days), body fat was determined using QNMR. With the exception of the group treated with 200 mg/kg KDT501, 10 animals/group were used in the determinations. Insulin and HbA1c glucose levels were determined on days 1, 15 and 29. Statistical calculations were performed (JMP version, SAS Institute, Cary, NC). One-way ANOVA with Dunnett's test for post hoc determinations were used to compare vehicle treated control. Data were expressed as mean ± SEM.

[3] = test system: human subcutaneous adipocytes; test: Gene expression profile and gene ontology in human subcutaneous adipocytes; assay type: cell-based; settings: 5 days
Procedure: Human subcutaneous primary adipocytes were maintained as described earlier. Cells were seeded at an initial density of approximately 2×10^6 cells in 6-well plates with PGM-2 medium (2 mL medium/well) and allowed to grow for 24 hr to confluence. Cells were treated with test compounds KDT501 (25 µM), rosiglitazone (1 µM), telmisartan (10 µM), or DMSO in adipocyte differentiating medium. The differentiation medium consisted of indomethacin, methylisobutylxanthine, dexamethasone, and insulin from PGM-2 single aliquots. After 5 days, the cells were washed in PBS, frozen in liquid nitrogen and shipped to Expression Analysis (Durham, NC) in dry ice. Three independent plates were used for each condition. RNA was extracted using the miRNeasy Mini Kit (Qiagen) as described by the manufacturer. RNA was isolated and expression profiling was performed using the Ambion WT Expression Kit (Life Technologies). Labeled target, which was hybridized to GeneChip Human Gene 1.0 ST Arrays (Affymetrix), was prepared essentially as described by the manufacturer. This cDNA was then used as a template for in vitro transcription using T7 RNA Polymerase to produce anti-sense RNA, which was then converted into single-stranded sense cDNA that was fragmented and labeled with biotin prior to hybridization to the GeneChip Arrays. […]

3T3L1 adipocytes = test: Lipogenesis in 3T3L1 adipocytes (Oil Red O); assay type: cell-based, murine; settings: 10 µM, 6 days, relative to DMSO
Procedure: as §1, with “The cells were washed, and bound dye was extracted and transferred to a 96 well plate.” left out, “Data represent Mean ± SD.” left out

RAW264.7 cells = test: LPS-activated PGE2 and NO in RAW264.7 cells; assay type: cell-based; settings: results not shown
PPARγ = molecular target: T1, PPARγ (Homo sapiens, UniProt P37231); test: PPARγ reporter assay (Indigo Biosciences); assay type: cell-based
T1 sequence (P37231 1-505): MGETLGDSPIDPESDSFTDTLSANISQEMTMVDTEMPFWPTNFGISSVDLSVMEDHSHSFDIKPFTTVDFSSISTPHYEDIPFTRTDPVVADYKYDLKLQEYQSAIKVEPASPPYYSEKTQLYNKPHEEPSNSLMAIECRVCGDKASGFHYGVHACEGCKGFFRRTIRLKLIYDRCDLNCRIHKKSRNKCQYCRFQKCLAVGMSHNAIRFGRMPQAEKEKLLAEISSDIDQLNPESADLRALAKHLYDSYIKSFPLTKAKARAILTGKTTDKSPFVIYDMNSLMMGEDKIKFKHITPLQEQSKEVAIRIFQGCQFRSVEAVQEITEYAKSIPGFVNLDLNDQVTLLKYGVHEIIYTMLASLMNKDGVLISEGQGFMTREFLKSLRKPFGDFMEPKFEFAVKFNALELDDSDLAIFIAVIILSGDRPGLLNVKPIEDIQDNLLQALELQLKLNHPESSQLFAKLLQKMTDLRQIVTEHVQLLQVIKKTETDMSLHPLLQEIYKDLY
Procedure: PPAR assay kits from Indigo Biosciences and supplemented protocols were used in this study. Briefly, the reporter cells were treated in triplicates with various concentrations of KDT501 (25–0.78 µM). Telmisartan (10–0.625 µM), GW590735 (10–0.03 µM), and GW0742 (1–0.01 µM) were used as positive controls for PPARγ, PPARα and PPARδ respectively. […]. Cells were incubated for 20 hours as per the protocol and read using a luminometer (Victor2, Perkin Elmer). Average relative light unit (RLU) values from blank wells were subtracted from all the samples. The final data were compared with DMSO control and statistical analyses were performed using GraphPad Prism.

In the case of CC/C=C\C/C=C\C/C=C\C/C=C\C/C=C\C/C=C\CCC(=O)O [DHA], the “LPS stimulated IL-6” value (THP-1 cells) is reported as “inhibited these cytokines in a concentration-dependent manner”, the “LPS stimulated MCP-1” value (THP-1 cells) is reported as “inhibited these cytokines in a concentration-dependent manner” and the “LPS stimulated RANTES” value (THP-1 cells) is reported as “inhibited these cytokines in a concentration-dependent manner”. For the same compound, the “lipogenesis, fold increase” value ([1]; 10 µM) was “No significant changes”.
For CCCCC/C=C/C=C1/C(=O)C=C[C@@H]1C/C=C\CCCC(=O)O [PGJ2, 5-deoxy-Δ12,14-PGJ2], the “LPS stimulated IL-6” value (THP-1 cells) was “inhibited these cytokines in a concentration-dependent manner”, the “LPS stimulated MCP-1” value (THP-1 cells) was “inhibited these cytokines in a concentration-dependent manner” and the “LPS stimulated RANTES” value (THP-1 cells) was “inhibited these cytokines in a concentration-dependent manner”. For the same compound, the “lipogenesis, fold increase” value ([1]; 10 µM) was 8.8 fold.
For CN(C)C(=N)N=C(N)N [metformin], the body weight ([2]; 200 mg/kg twice daily oral (metformin group)) was “gained weight”, the “total cholesterol in plasma” value (ZDF rats; metformin group) was “neither metformin nor pioglitazone had this effect” and the “OGTT glucose AUC” value (DIO mice; 200 mg/kg twice per day oral) was “significantly reduced”. For the same compound, the “OGTT insulin AUC” value (DIO mice; 200 mg/kg twice per day oral) was “significantly reduced” and the “fat mass by the end of the study (QNMR)” value (DIO mice; 200 mg/kg twice per day oral, vs vehicle) was “Significant reduction”.
With CCc1ccc(CCOc2ccc(CC3SC(=O)NC3=O)cc2)nc1 (centres unmarked) [pioglitazone] the “HbA1c at the end of the study” value ([2]; 30 mg/kg twice daily oral) was “approximately half that of the vehicle-treated control”, the body weight ([2]; 30 mg/kg twice daily oral) was “gained weight” and the “total cholesterol in plasma” value (ZDF rats; pioglitazone group) was “neither metformin nor pioglitazone had this effect”. The triglycerides in plasma (ZDF rats; pioglitazone group, day 15 and day 30) was “reduced triglycerides”, the “OGTT glucose AUC” value (DIO mice; 30 mg/kg twice per day oral) was “significantly reduced” and the “OGTT insulin AUC” value (DIO mice; 30 mg/kg twice per day oral) was “significantly reduced”.
CN(CCOc1ccc(CC2SC(=O)NC2=O)cc1)c1ccccn1 (centres unmarked) [rosiglitazone] was tested, and the “number of transcripts stimulated at least 2-fold” value ([3]; 1 µM) was 62, the “LPS stimulated IL-6” value (THP-1 cells) was “did not significantly affect” and the “LPS stimulated MCP-1” value (THP-1 cells) was “did not significantly affect”. The “LPS stimulated RANTES” value (THP-1 cells) was “did not significantly affect”, the “lipogenesis, fold increase” value ([1]; 1 µM) was 10.3 fold and the “lipogenesis, fold increase” value (3T3L1 adipocytes) was “about 2.8 fold”. The “induction of LPS-activated PGE2” value (RAW264.7 cells) was “not with rosiglitazone”.
With CCCc1nc2c(C)cc(-c3nc4ccccc4n3C)cc2n1Cc1ccc(-c2ccccc2C(=O)O)cc1 [telmisartan] the “number of transcripts changed” value ([3]; 10 µM, 5 up and 3 down, common to rosiglitazone and KDT501) was 8, the “LPS stimulated IL-6” value (THP-1 cells) was “inhibited these cytokines in a concentration-dependent manner” and the “LPS stimulated MCP-1” value (THP-1 cells) was “inhibited these cytokines in a concentration-dependent manner”. For the same compound, the “LPS stimulated RANTES” value (THP-1 cells) was “inhibited these cytokines in a concentration-dependent manner”, the “lipogenesis, fold increase” value ([1]; 10 µM) was 3.5 fold and the EC50 (PPARγ) was 13.4 µM.
